Laboratory results published in patent US8145430B2, “Predictive scoring function for estimating binding affinity” (Schrodinger, LLC, priority 2005, dated 2012).
Like-named read-outs stand apart in the source and are kept apart here.

Assays:
[1] = tested on: protein-ligand complexes in the PDB; details: experimental binding affinity, cited from earlier work
Glur2 receptors = details: series of Glur2 receptors; cited from earlier work
Streptavidin = Streptavidin (Streptomyces avidinii, UniProt P22629); experiment: Calculated versus experimental binding affinity, streptavidin and biotin (pdb 1stp), docked structure; details: using a docked structure
Streptavidin, sequence (P22629 25-183): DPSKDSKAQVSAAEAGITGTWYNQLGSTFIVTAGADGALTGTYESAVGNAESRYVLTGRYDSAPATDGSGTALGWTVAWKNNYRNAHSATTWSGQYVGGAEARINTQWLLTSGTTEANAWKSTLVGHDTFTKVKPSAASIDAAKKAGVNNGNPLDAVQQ
Excerpt: FIG. 8 illustrates Streptavidin in biotin (pdb 1stp). Both special hydrogen bonds in this complex, and hydrophobic enclosure of the hydrogen bonding region, are shown.
Here three correlated hydrogen bonds occur in a hydrophobically enclosed region. Up to the present time, no empirical scoring function has explained the exceptionally large binding affinity of streptavidin in biotin. Once the triple, enclosed hydrogen bonding motif is recognized and assigned an appropriate score, the deviation between calculated and experimental binding affinity, using a docked structure, is only 1.5 kcal/mole.

aldose reductase = aldose reductase (Homo sapiens, UniProt P15121); details: lef3 structure of aldose reductase; cited from earlier work
[2] = column beside SP Score (repeat)

Structure (SMILES) | ΔG_exp [1, 2] [kcal/mol] | ΔG_exp ([1]; column beside XP Score) [kcal/mol] | ΔG (experimental binding energies) (Glur2 receptors) [kcal/mol] | deviation between calculated and experimental binding affinity (Streptavidin) [kcal/mol] | binding affinity experimentally (aldose reductase)
Nc1c2c(nc3ccccc13)CCCC2 [1acj] | -10 | -10 |  |  | 
CNC(=O)C(F)(F)C(O)(O)[C@H](CC(C)C)NC(=O)[C@@H](NC(=O)[C@@H](NC(=O)CC(C)C)C(C)C)C(C)C [1apv] | -11.3 | -11.3 |  |  | 
N=C(N)c1ccccc1 [1bra] | -2.5 | -2.5 |  |  | 
CC(C)c1ccc(NC(=O)[C@H](Cc2ccccc2)NC(=O)[C@H](CCCCN)NC(=O)C(F)(F)F)cc1 [1elc] | -9.8 | -9.8 |  |  | 
CC(=O)N[C@H](C(=O)N[C@@H](Cc1ccccc1)[C@@H](O)CN(CC1CCCCC1)NC(=O)[C@@H](NC(C)=O)C(C)C)C(C)C [1hih] | -11.3 | -11.3 |  |  | 
CC1(C)S[C@H]([C@H](NC(=O)Cc2ccccc2)C(=O)NCc2ccccc2)N[C@H]1C(=O)N[C@@H](CO)Cc1ccccc1 [1htf] | -11.1 | -11.1 |  |  | 
CC(=O)N[C@H]1[C@H]([C@H](O)[C@H](O)CO)OC(C(=O)O)=C[C@@H]1O [1nnb] | -7.2 | -7.2 |  |  | 
O=C(O)[C@H](O)[C@@H](O)[C@H](O)[C@H](O)COP(=O)(O)O [1pgp] | -7.8 | -7.8 |  |  | 
Cc1ccc(S(=O)(=O)N[C@@H](Cc2cccc(C(=N)N)c2)C(=O)N2CCCCC2)cc1 [1pph] | -8.5 | -8.5 |  |  | 
COC(=O)[C@H](Cc1ccccc1)OP(=O)(O)[C@H](CC(C)C)NC(=O)[C@@H](NC(=O)[C@@H](NC(=O)CC(C)C)C(C)C)C(C)C [1ppl] | -11.5 | -11.5 |  |  | 
CC(C)C[C@H](N[C@@H](CCc1ccccc1)C(=O)O)C(=O)N[C@@H](Cc1c[nH]c2ccccc12)C(=O)O [1tmn] | -10 | -10 |  |  | 
NCC1CCCCC1 [1tng] | -4 | -4 |  |  | 
NCCCCc1ccccc1 [1tni] | -2.3 | -2.3 |  |  | 
CC12CCC(CC1=O)C2(C)C (centres unmarked) [2cpp] | -8.3 | -8.3 |  |  | 
O=C(O)[C@@H](O)Cc1ccccc1 [2ctc] | -5.3 | -5.3 |  |  | 
CN(Cc1cnc2nc(N)nc(N)c2n1)c1ccc(C(=O)N[C@@H](CCC(=O)O)C(=O)O)cc1 [4dfr] | -13.2 | -13.2 |  |  | 
O=C(N[C@H]1c2ccccc2C[C@H]1O)[C@H](Cc1ccccc1)CC(O)C[C@@H](Cc1ccccc1)C(=O)N[C@H]1c2ccccc2C[C@H]1O [4phv] | -12.5 | -12.5 |  |  | 
CC(C)C[C@H](N)C(=O)NO [4tln] | -5.1 | -5.1 |  |  | 
C[C@H]1O[C@H](O)[C@H](O)[C@@H](O)[C@H]1O [7abp] | -8.1 | -8.1 |  |  | 
N[C@@H](CCC(=O)O)C(=O)O [Ligand 1ftj] |  |  | 8.5 |  | 
O=c1[nH]c2cc([N+](=O)[O-])c([N+](=O)[O-])cc2[nH]c1=O [Ligand 1ftl] |  |  | 8.3 |  | 
Cc1o[nH]c(=O)c1C[C@H](N)C(=O)O [Ligand 1ftm] |  |  | 8.8 |  | 
N[C@@H](Cn1cc(F)c(=O)[nH]c1=O)C(=O)O [Ligand 1mqi] |  |  | 11.9 |  | 
O=C(O)CCCC[C@@H]1SC[C@@H]2NC(=O)N[C@@H]21 [biotin] |  |  |  | 1.5 | 
NC(=O)[C@@H]1C[C@]2(NC(=O)NC2=O)c2cc(F)ccc2O1 [fiderestat] |  |  |  |  | low nanomolar
